One test has as its target T1, PRMT5/MEP50 (Homo sapiens, UniProt O14744).
T1 construct: Expressed full-length human Flag-PRMT5/6His-MeP50 protein complex was purified; made in house; host or cells: Spodoptera frugiperda (SF9) insect cells, baculovirus (pDEST8)
The test can be described thus: PRMT5 Biochemical Assay (PRMT5/MEP50 enzyme assay on peptide substrate, 3H-SAM Flashplate). The note with it: Table D-2; read-out: Biochemical IC50.

A further test has as its system Z-138 cells. The test can be described thus: Z-138 Proliferation Assay (Cell Titer Glo, 5 days). The test is classed as cell-based. As to conditions: Homo sapiens, Table D-2. The gist of the method:
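Exponentially growing Z-138 cells (10,000 cells/ml) in RPMI 1640 with 10% FBS are exposed to nine-point 3-fold dilutions (final top concentration 20 μM, 0.2% DMSO) for 5 days at 37° C. Viability is measured as ATP by CellTiter-Glo luminescence. The 50% inhibitory concentration comes from a 4-parameter fit.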
For orientation: ATP-based viability assays read luminescence as a measure of living cells.

T1 sequence (O14744 with tags, fused parts or gaps): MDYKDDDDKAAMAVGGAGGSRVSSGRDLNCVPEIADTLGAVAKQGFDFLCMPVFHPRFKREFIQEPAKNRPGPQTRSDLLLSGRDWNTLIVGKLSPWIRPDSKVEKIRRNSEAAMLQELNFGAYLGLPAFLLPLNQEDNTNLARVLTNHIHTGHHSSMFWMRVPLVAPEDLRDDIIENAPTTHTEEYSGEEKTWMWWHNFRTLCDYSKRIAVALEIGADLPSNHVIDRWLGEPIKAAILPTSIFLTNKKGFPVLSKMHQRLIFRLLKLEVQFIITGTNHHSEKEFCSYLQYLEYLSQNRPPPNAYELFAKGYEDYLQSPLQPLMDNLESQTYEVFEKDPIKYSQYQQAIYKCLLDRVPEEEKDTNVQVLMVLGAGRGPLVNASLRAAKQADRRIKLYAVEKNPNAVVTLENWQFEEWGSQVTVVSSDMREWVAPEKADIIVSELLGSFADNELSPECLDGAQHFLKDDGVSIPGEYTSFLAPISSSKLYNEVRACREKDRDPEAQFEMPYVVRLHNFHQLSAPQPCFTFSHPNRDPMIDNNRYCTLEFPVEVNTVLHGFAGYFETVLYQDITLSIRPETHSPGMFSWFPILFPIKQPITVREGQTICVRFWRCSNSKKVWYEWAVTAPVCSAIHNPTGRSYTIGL
T1 sequence (Q9BQA1 with tags, fused parts or gaps partner limits assumed): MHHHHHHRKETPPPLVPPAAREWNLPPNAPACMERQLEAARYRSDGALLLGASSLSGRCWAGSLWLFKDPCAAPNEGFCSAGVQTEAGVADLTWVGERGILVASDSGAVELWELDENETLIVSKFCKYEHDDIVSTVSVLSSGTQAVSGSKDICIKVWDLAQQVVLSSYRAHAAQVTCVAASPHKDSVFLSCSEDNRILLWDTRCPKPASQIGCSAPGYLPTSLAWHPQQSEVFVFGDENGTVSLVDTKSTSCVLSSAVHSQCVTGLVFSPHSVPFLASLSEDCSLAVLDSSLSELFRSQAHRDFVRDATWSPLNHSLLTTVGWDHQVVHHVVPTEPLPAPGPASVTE

Broadly, the IC50 is the concentration at which inhibition is half-maximal. For orientation: EC50 means the concentration at which the effect is half-maximal. Consider `N#Cc1ccccc1-c1cccc(OCC(O)CN2CCc3ccccc3C2)c1` (stereo not drawn) [Compound D93], for which the IC50 at PRMT5/MEP50 lay within 0.101 to 1 µM. Also, in the test with Z-138 cells, the EC50 lay within 10 to 40 µM.
The matching figures for `Oc1cccc(-c2cccc(OCC(O)CN3CCc4ccccc4C3)c2)c1` (stereo not drawn) [Compound D95]: 0.101 to 1 µM and 10 to 40 µM.
Regarding `N#Cc1ccc(-c2cccc(OCC(O)CN3CCc4ccccc4C3)c2)cc1` (stereo not drawn) [Compound D94], the half-inhibitory concentration (IC50) at PRMT5/MEP50 fell in the range of 0.101 to 1 µM. In the test with Z-138 cells, this molecule returned an EC50 of 10 to 40 µM.

These data come from patent US20150344457A1, “METHODS OF INHIBITING PRMT5” (EPIZYME, INC., priority 2012, published 2015).
